Experiments:
DIPGX29 [1] = H3.3 K27M diffuse intrinsic pontine glioma line; test: maximal growth inhibition (yFin) relative to DMSO / staurosporine; higher = more efficacious
Method in brief: (§1)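 Patient-derived pHGG/DIPG cell lines and astrocyte controls were plated in 384-well plates coated with 1% Geltrex and dosed by pin tool with a 10-point threefold dilution series (mean top concentration 35 μM), in triplicate. Cells were exposed for 7 days (3 days for iAstro) at 37 °C and 5% CO2. CellTiter-Glo luminescence was log2-transformed, normalised per plate to % activity between negative (solvent) and positive control wells, and pooled. EC50 and maximal response (yFin) were taken from whichever three- or four-parameter log-logistic fit had the lowest AICc.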

DIPGX37 [2] = H3.3 K27M diffuse intrinsic pontine glioma line; test: as above
Method in brief: as §1

DIPGX7 [3] = H3.3 K27M diffuse intrinsic pontine glioma line; test: as above
Method in brief: as §1

DIPGX9 [4] = diffuse intrinsic pontine glioma line; test: as above
Method in brief: as §1

HGGX2 [5] = paediatric high-grade glioma line; test: as above
Method in brief: as §1

HGGX39 [6] = paediatric high-grade glioma line; test: as above
Method in brief: as §1

HGGX42 [7] = H3.3 G34R paediatric high-grade glioma line; test: as above
Method in brief: as §1

SUDIPGIV [8] = diffuse intrinsic pontine glioma line; test: as above
Method in brief: as §1

SUDIPGVI [9] = diffuse intrinsic pontine glioma line; test: as above
Method in brief: as §1

SUDIPGXIII [10] = diffuse intrinsic pontine glioma line; test: as above
Method in brief: as §1

SUDIPGXIX [11] = diffuse intrinsic pontine glioma line; test: as above
Method in brief: as §1

SUDIPGXXI [12] = diffuse intrinsic pontine glioma line; test: as above
Method in brief: as §1

iAstro [13] = astrocyte control; test: as above
Method in brief: as §1

DIPGX29 [14] = test: area under dose-response curve of % growth inhibition (log2 RLU vs DMSO / staurosporine), 1e-11 to 1e-4 M (% x log10 M); higher = more growth inhibition
Method in brief: (§2)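 Patient-derived pHGG/DIPG cell lines and astrocyte controls were grown on 1% Geltrex-coated 384-well plates and exposed to a 10-point threefold dilution series (mean top concentration 35 μM), in triplicate. Exposure was 7 days (iAstro 3 days) at 37 °C, 5% CO2. CellTiter-Glo luminescence was log2-transformed and normalised per plate to % activity between solvent and positive controls. Area under the curve was taken by trapezoid rule from the fitted log-logistic curve, or from a smoothing spline when the sigmoid fit failed.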

DIPGX37 [15] = test: as above
Method in brief: as §2

DIPGX7 [16] = test: as above
Method in brief: as §2

DIPGX9 [17] = test: as above
Method in brief: as §2

HABS = astrocyte control; test: as above
Method in brief: as §2

HGGX2 [18] = test: as above
Method in brief: as §2

HGGX39 [19] = test: as above
Method in brief: as §2

HGGX42 [20] = test: as above
Method in brief: as §2

HGGX6 = H3.3 G34R paediatric high-grade glioma line; test: as above
Method in brief: as §2

SUDIPGIV [21] = test: as above
Method in brief: as §2

SUDIPGVI [22] = test: as above
Method in brief: as §2

SUDIPGXIII [23] = test: as above
Method in brief: as §2

SUDIPGXIX [24] = test: as above
Method in brief: as §2

SUDIPGXVII = diffuse intrinsic pontine glioma line; test: as above
Method in brief: as §2

SUDIPGXXI [25] = test: as above
Method in brief: as §2

iAstro [26] = test: as above
Method in brief: as §2

CC(C)(C)c1cnc(CSc2cnc(NC(=O)C3CCNCC3)s2)o1
maximal growth inhibition (DIPGX29 [1]): 84% | maximal growth inhibition (DIPGX37 [2]): 86.8% | maximal growth inhibition (DIPGX7 [3]): 113% | maximal growth inhibition (DIPGX9 [4]): 104% | maximal growth inhibition (HGGX2 [5]): 57% | maximal growth inhibition (HGGX39 [6]): 84.8% | maximal growth inhibition (HGGX42 [7]): 87.2% | maximal growth inhibition (SUDIPGIV [8]): 103% | maximal growth inhibition (SUDIPGVI [9]): 82.8% | maximal growth inhibition (SUDIPGXIII [10]): 92.1% | maximal growth inhibition (SUDIPGXIX [11]): 116% | maximal growth inhibition (SUDIPGXXI [12]): 110% | maximal growth inhibition (iAstro [13]): 27.2% | area under dose-response curve (DIPGX29 [14]): 185 | area under dose-response curve (DIPGX37 [15]): 192 | area under dose-response curve (DIPGX7 [16]): 208 | area under dose-response curve (DIPGX9 [17]): 281 | area under dose-response curve (HABS): 121 | area under dose-response curve (HGGX2 [18]): 130 | area under dose-response curve (HGGX39 [19]): 171 | area under dose-response curve (HGGX42 [20]): 216 | area under dose-response curve (HGGX6): 151 | area under dose-response curve (SUDIPGIV [21]): 221 | area under dose-response curve (SUDIPGVI [22]): 196 | area under dose-response curve (SUDIPGXIII [23]): 176 | area under dose-response curve (SUDIPGXIX [24]): 245 | area under dose-response curve (SUDIPGXVII): 199 | area under dose-response curve (SUDIPGXXI [25]): 320 | area under dose-response curve (iAstro [26]): 55.9

CC(C)c1c2cc(-c3ccnc(NC4CCC(NC5CCOCC5)CC4)n3)ccc2nn1C (centres undefined)
maximal growth inhibition (DIPGX29 [1]): 84.4% | maximal growth inhibition (DIPGX37 [2]): 81.2% | maximal growth inhibition (DIPGX7 [3]): 93.3% | maximal growth inhibition (DIPGX9 [4]): 89.5% | maximal growth inhibition (HGGX2 [5]): 75.2% | maximal growth inhibition (HGGX39 [6]): 83.2% | maximal growth inhibition (HGGX42 [7]): 82% | maximal growth inhibition (SUDIPGIV [8]): 90.4% | maximal growth inhibition (SUDIPGVI [9]): 84% | maximal growth inhibition (SUDIPGXIII [10]): 89.3% | maximal growth inhibition (SUDIPGXIX [11]): 91.6% | maximal growth inhibition (SUDIPGXXI [12]): 99.9% | maximal growth inhibition (iAstro [13]): 26.6% | area under dose-response curve (DIPGX29 [14]): 222 | area under dose-response curve (DIPGX37 [15]): 225 | area under dose-response curve (DIPGX7 [16]): 270 | area under dose-response curve (DIPGX9 [17]): 283 | area under dose-response curve (HABS): 135 | area under dose-response curve (HGGX2 [18]): 198 | area under dose-response curve (HGGX39 [19]): 189 | area under dose-response curve (HGGX42 [20]): 252 | area under dose-response curve (HGGX6): 210 | area under dose-response curve (SUDIPGIV [21]): 256 | area under dose-response curve (SUDIPGVI [22]): 252 | area under dose-response curve (SUDIPGXIII [23]): 249 | area under dose-response curve (SUDIPGXIX [24]): 278 | area under dose-response curve (SUDIPGXVII): 263 | area under dose-response curve (SUDIPGXXI [25]): 319 | area under dose-response curve (iAstro [26]): 91.7

COc1cc(F)ccc1-c1ncnc(Nc2cccc(CS(C)(=N)=O)c2)n1 (centres undefined)
maximal growth inhibition (DIPGX29 [1]): 78.9% | maximal growth inhibition (DIPGX37 [2]): 76.2% | maximal growth inhibition (DIPGX7 [3]): 110% | maximal growth inhibition (DIPGX9 [4]): 103% | maximal growth inhibition (HGGX2 [5]): 57.3% | maximal growth inhibition (HGGX39 [6]): 68% | maximal growth inhibition (HGGX42 [7]): 67% | maximal growth inhibition (SUDIPGIV [8]): 97.4% | maximal growth inhibition (SUDIPGVI [9]): 89.8% | maximal growth inhibition (SUDIPGXIII [10]): 87% | maximal growth inhibition (SUDIPGXIX [11]): 100% | maximal growth inhibition (SUDIPGXXI [12]): 114% | maximal growth inhibition (iAstro [13]): 24.7% | area under dose-response curve (DIPGX29 [14]): 109 | area under dose-response curve (DIPGX37 [15]): 128 | area under dose-response curve (DIPGX7 [16]): 143 | area under dose-response curve (DIPGX9 [17]): 195 | area under dose-response curve (HABS): 104 | area under dose-response curve (HGGX2 [18]): 100 | area under dose-response curve (HGGX39 [19]): 82.1 | area under dose-response curve (HGGX42 [20]): 134 | area under dose-response curve (HGGX6): 121 | area under dose-response curve (SUDIPGIV [21]): 156 | area under dose-response curve (SUDIPGVI [22]): 120 | area under dose-response curve (SUDIPGXIII [23]): 84.4 | area under dose-response curve (SUDIPGXIX [24]): 156 | area under dose-response curve (SUDIPGXVII): 109 | area under dose-response curve (SUDIPGXXI [25]): 226 | area under dose-response curve (iAstro [26]): 57.6

c1ccc2c(-c3cnn4cc(-c5ccc(N6CCNCC6)cc5)cnc34)ccnc2c1
maximal growth inhibition (DIPGX29 [1]): 95.2% | maximal growth inhibition (DIPGX37 [2]): 99% | maximal growth inhibition (DIPGX7 [3]): 106% | maximal growth inhibition (DIPGX9 [4]): 108% | maximal growth inhibition (HGGX2 [5]): 104% | maximal growth inhibition (HGGX39 [6]): 88.9% | maximal growth inhibition (HGGX42 [7]): 102% | maximal growth inhibition (SUDIPGIV [8]): 107% | maximal growth inhibition (SUDIPGVI [9]): 105% | maximal growth inhibition (SUDIPGXIII [10]): 105% | maximal growth inhibition (SUDIPGXIX [11]): 113% | maximal growth inhibition (SUDIPGXXI [12]): 119% | maximal growth inhibition (iAstro [13]): 93.5% | area under dose-response curve (DIPGX29 [14]): 165 | area under dose-response curve (DIPGX37 [15]): 163 | area under dose-response curve (DIPGX7 [16]): 183 | area under dose-response curve (DIPGX9 [17]): 202 | area under dose-response curve (HABS): 129 | area under dose-response curve (HGGX2 [18]): 185 | area under dose-response curve (HGGX39 [19]): 147 | area under dose-response curve (HGGX42 [20]): 171 | area under dose-response curve (HGGX6): 146 | area under dose-response curve (SUDIPGIV [21]): 171 | area under dose-response curve (SUDIPGVI [22]): 166 | area under dose-response curve (SUDIPGXIII [23]): 162 | area under dose-response curve (SUDIPGXIX [24]): 187 | area under dose-response curve (SUDIPGXVII): 172 | area under dose-response curve (SUDIPGXXI [25]): 291 | area under dose-response curve (iAstro [26]): 137

COc1ccc(C[C@H](NC(=O)[C@H](C)NC(=O)CN2CCOCC2)C(=O)N[C@@H](Cc2ccccc2)C(=O)C2(C)CO2)cc1 (stereo in doubt) [ONX-0914]
maximal growth inhibition (DIPGX29 [1]): 71.9% | maximal growth inhibition (DIPGX37 [2]): 95.7% | maximal growth inhibition (DIPGX7 [3]): 97.5% | maximal growth inhibition (DIPGX9 [4]): 96.9% | maximal growth inhibition (HGGX2 [5]): 87.4% | maximal growth inhibition (HGGX39 [6]): 91.9% | maximal growth inhibition (HGGX42 [7]): 68% | maximal growth inhibition (SUDIPGIV [8]): 89.7% | maximal growth inhibition (SUDIPGVI [9]): 85.8% | maximal growth inhibition (SUDIPGXIII [10]): 89.5% | maximal growth inhibition (SUDIPGXIX [11]): 95% | maximal growth inhibition (SUDIPGXXI [12]): 93.9% | maximal growth inhibition (iAstro [13]): 73.5% | area under dose-response curve (DIPGX29 [14]): 156 | area under dose-response curve (DIPGX37 [15]): 242 | area under dose-response curve (DIPGX7 [16]): 220 | area under dose-response curve (DIPGX9 [17]): 252 | area under dose-response curve (HABS): 206 | area under dose-response curve (HGGX2 [18]): 277 | area under dose-response curve (HGGX39 [19]): 209 | area under dose-response curve (HGGX42 [20]): 186 | area under dose-response curve (HGGX6): 182 | area under dose-response curve (SUDIPGIV [21]): 255 | area under dose-response curve (SUDIPGVI [22]): 233 | area under dose-response curve (SUDIPGXIII [23]): 230 | area under dose-response curve (SUDIPGXIX [24]): 245 | area under dose-response curve (SUDIPGXVII): 175 | area under dose-response curve (SUDIPGXXI [25]): 328 | area under dose-response curve (iAstro [26]): 243

CCN1CCN(Cc2ccc(Nc3ncc(F)c(-c4cc(F)c5nc(C)n(C(C)C)c5c4)n3)nc2)CC1 [ABEMACICLIB]
maximal growth inhibition (DIPGX29 [1]): 38.4% | maximal growth inhibition (DIPGX37 [2]): 99.9% | maximal growth inhibition (DIPGX7 [3]): 110% | maximal growth inhibition (DIPGX9 [4]): 43.3% | maximal growth inhibition (HGGX2 [5]): 42.3% | maximal growth inhibition (HGGX39 [6]): 84.4% | maximal growth inhibition (HGGX42 [7]): 30.7% | maximal growth inhibition (SUDIPGIV [8]): 76.8% | maximal growth inhibition (SUDIPGVI [9]): 48.9% | maximal growth inhibition (SUDIPGXIII [10]): 52.5% | maximal growth inhibition (SUDIPGXIX [11]): 110% | maximal growth inhibition (SUDIPGXXI [12]): 96.9% | maximal growth inhibition (iAstro [13]): 59% | area under dose-response curve (DIPGX29 [14]): 107 | area under dose-response curve (DIPGX37 [15]): 255 | area under dose-response curve (DIPGX7 [16]): 233 | area under dose-response curve (DIPGX9 [17]): 124 | area under dose-response curve (HABS): 93.8 | area under dose-response curve (HGGX2 [18]): 120 | area under dose-response curve (HGGX39 [19]): 193 | area under dose-response curve (HGGX42 [20]): 83.9 | area under dose-response curve (HGGX6): 127 | area under dose-response curve (SUDIPGIV [21]): 156 | area under dose-response curve (SUDIPGVI [22]): 102 | area under dose-response curve (SUDIPGXIII [23]): 109 | area under dose-response curve (SUDIPGXIX [24]): 248 | area under dose-response curve (SUDIPGXVII): 123 | area under dose-response curve (SUDIPGXXI [25]): 252 | area under dose-response curve (iAstro [26]): 161

From the supplement of paper PMC8253809
